Results as given in US12383542B2, “Methods of treating ovarian cancer” (TESARO, INC., priority 2016, dated 2025).
Several values for one entry are separate records, joined by “and”; a condition that tells them apart may be missing. Identical values can stand only once. Counter-ions that a name gives are not always drawn. Like-named read-outs stand apart in the source and are kept apart here.

Tests used:
PARP activity [1] = settings: tumor homogenates
PARP activity [2] = settings: mice dosed with niraparib
[3] = in vivo
Protocol: Patients with ovarian cancer regardless of platinum sensitivity and burden of disease were randomized to either Group A or Group B with 6 patients assigned to each group. […] In Group B, patients fasted for at least 10 hours before consuming a high fat meal.

[4] = Source text: Patients continued to receive their assigned treatment until disease progression, unacceptable toxicity, death, withdrawal of consent, and/or lost to follow-up. Dose interruption and/or reduction were available at any time for any grade toxicity considered intolerable by the patient.
Dose interruption and/or reduction could be implemented at any time for any grade toxicity considered intolerable by the patient. Treatment was required to be interrupted for any non-hematologic AE that was Grade 3 or 4, per NCI CTCAE v.4.02 if the Investigator considered the event to be related to administration of study drug. If toxicity was appropriately resolved to baseline or Grade 1 or less within 28 days, the patient was allowed to restart treatment with study drug, but with a dose level reduction according to Table 4, if prophylaxis was not considered feasible.

[5] = system: platinum-sensitive recurrent ovarian cancer; settings: for patients with PFS events at the time of unblinding: patients entering with PR; for Time to second subsequent treatment, HR: <40% of events
PARP activity [6] = assay: cells
[7] = system: MDA-MB-436, CAPAN-1, GRANTA-519, OVCAR3, HT29, DLD-1, patient derived Ewing's sarcoma and TNBC xenograft models; settings: xenograft models in mice
[8] = system: cancer cell lines that have been silenced for BRCA-1 or BRCA-2, or carry BRCA-1 or BRCA-2 mutations
[9] = system: Ewing's sarcoma, ALL, NSCLC, SCLC cell lines and tumor cell lines carrying homozygous inactivation of the ATM gene
[10] = system: platinum-sensitive epithelial ovarian cancer; settings: cited from earlier work
ovarian cancer [11] = settings: cited from earlier work
ovarian cancer [12] = settings: cited from earlier work; remark: listed apart in the source
[13] = system: advanced BRCA-mutant ovarian cancer; settings: cited from earlier work
ovarian cancer [14] = settings: relatively small sample size; cited from earlier work
[15] = all patients treated with niraparib
[16] = HRDneg group, listed as Niraparib

## NC(=O)c1cccc2cn(-c3ccc([C@@H]4CCCNC4)cc3)nc12 [niraparib, (3S)-3-[4-{7-(aminocarbonyl)-2H-indazol-2-yl}phenyl]piperidine]
PARP activity [1]
  target engagement (PARP activity): Target engagement has also been demonstrated
Normal human cells
  activity on normal human cells: weak activity
PARP activity [2]
  PARP activity in PBMCs: Inhibition of PARP activity
[3]
  bioavailability in fed versus fasted state: substantially similar
[4]; ITT population
  rate of MDS/AML: 1.3%
[4]; [15]
  treatment-emergent grade 3/4 anemia: 24.8%
  treatment-emergent grade 3/4 neutropenia: 11.2%
  treatment-emergent grade 3/4 thrombocytopenia: 28.3%
[4]; human, in vivo, 300 mg QD
  grade 5 events: No grade 5 events occurred
[4]; in vivo
  TEAEs leading to dose reduction: 67%
  TEAEs leading to treatment discontinuation: 15%
  TEAEs leading to treatment interruption: 69%
  grade 3 or 4 bleeding event: No patient
  incidence of CTCAE Grade ≥3 TEAEs: 74%
  incidence of SAEs: 30%
  incidence of treatment-related TEAEs: 98%
  patients remaining on niraparib for the duration of the study: ~85%
  patients with at least 1 TEAE: all patients
[4]; overall niraparib treated population, after decrease by day 15
  mean platelet count over time: generally returned to near baseline by Cycle 4
[4]; patients who received niraparib (5 of 367)
  incidence of MDS/AML: 1.4% and 1%
[5]; HRDneg group
  % of Patients without Progression or Death at 6 Months: 54%
  % of Patients without Progression or Death at 12 Months: 27%
  % of Patients without Progression or Death at 18 Months: 19%
[5]; [16]
  % of Patients without Progression or Death at 12 Months: 27%
  % of Patients without Progression or Death at 18 Months: 19%
[5]; HRDpos group
  % of Patients without Progression or Death at 6 Months: 69%
  % of Patients without Progression or Death at 12 Months: 51%
  % of Patients without Progression or Death at 18 Months: 37%
[5]; both cohorts, versus placebo
  chemotherapy-free interval: significantly improved
  time to first subsequent treatment: significantly improved
[5]; combined cohorts, data immature, 80% of patients censored
  Overall Survival, HR: HR 0.73 (95% CI: 0.480, 1.125)
[5]; combined study population (gBRCAmut and non-gBRCAmut), exploratory pooled analysis
  Median PFS: 11.3 months
[5]; gBRCAmut and non-gBRCAmut cohorts
  PFS by niraparib dose of longest duration (100, 200, 300 mg): consistent with the overall population
[5]; gBRCAmut cohort
  % of Patients without Progression or Death at 6 Months: 80%
  % of Patients without Progression or Death at 12 Months: 62%
  % of Patients without Progression or Death at 18 Months: 50%
  Median PFS: 21.0 Months
  progression-free survival 2: 25.8 months
[5]; gBRCAmut cohort, listed as Niraparib
  Median PFS: 21.0 Months and 21.0 (12.9, NE) Months
[5]; gBRCAmut
  patients with PFS events at the time of unblinding: 45%
[5]; gBRCAmut, data immature
  Time to second subsequent treatment, HR: HR 0.48 (95% CI: 0.272, 0.851)
[5]; in vivo
  impact of treatment on OS: no detrimental impact
[5]; non-gBRCAmut cohort
  % of Patients without Progression or Death at 6 Months: 61%
  % of Patients without Progression or Death at 12 Months: 41%
  % of Patients without Progression or Death at 18 Months: 30%
[5]; non-gBRCAmut, HRD negative
  Median PFS: 6.9 Months
[5]; non-gBRCAmut, HRD negative, listed as Niraparib
  Median PFS: 6.9 Months and 6.9 (5.6, 9.6) Months
[5]; non-gBRCAmut, HRD-positive
  Median PFS: 12.9 Months
[5]; non-gBRCAmut, HRD-positive, listed as Niraparib
  Median PFS: 12.9 Months and 12.9 (8.1, 15.9) Months
[5]; non-gBRCAmut, HRDpos/BRCAwt
  Median PFS: 9.3 Months
[5]; non-gBRCAmut, HRDpos/somatic BRCAmut
  Median PFS: 20.9 Months
[5]; non-gBRCAmut
  patients with PFS events at the time of unblinding: 56%
[5]; non-gBRCAmut, data immature
  Time to second subsequent treatment, HR: HR 0.74 (95% CI: 0.519, 1.066)
[5]; overall non-gBRCAmut cohort
  Median PFS: 9.3 Months
  median PFS 2: 18.64 months
[5]; overall non-gBRCAmut cohort, listed as Niraparib
  Median PFS: 9.3 Months and 9.3 (7.2, 11.2) Months
[5]; pooled cohorts, versus placebo
  PFS2-PFS1 (efficacy of next-line treatment): similar
PARP activity [6]; read-out: IC50 of PARP activity in cells
  IC50: ~4 nM
PARP activity [6]; read-out: inhibitory concentration at 90% of control (IC90)
  IC90: ~50 nM
[7]
  antitumor activity: strong antitumor activity
[8]; BRCA-defective cells
  consequence on cell cycle: cell cycle arrest in G2/M followed by apoptosis
[8]; compared to wild type counterparts
  anti-proliferative activity: selective anti-proliferative activity
[9]
  cytotoxicity: selectively cytotoxic

## O=C(c1cc(Cc2n[nH]c(=O)c3ccccc23)ccc1F)N1CCN(C(=O)C2CC2)CC1 [olaparib, 4-[(3-{[4-(cyclopropylcarbonyl)piperazin-1-yl]carbonyl}-4-fluorophenyl)methyl]phthalazin-1(2H)-one]
[10]; human, in vivo
  serious adverse events versus control group: more common
[10]; women with germline BRCA mutations, versus placebo or no treatment
  change in overall survival: no significant change
Ovarian cancer [11]; 17 patients with BRCA1 or BRCA2 mutations
  responses: 7
Ovarian cancer [11]; 46 patients without these mutations
  responses: 11
Ovarian cancer [12]; patients with BRCA mutations
  Median PFS: 11.2 months
Ovarian cancer [12]; phase II maintenance study
  planned analysis of the subset of patients with BRCA mutations: a clear advantage

## CNCc1ccc(-c2[nH]c3cc(F)cc4c3c2CCNC4=O)cc1 [rucaparib, 8-fluoro-2-{4-[(methylamino)methyl]phenyl}-1,3,4,5-tetrahydro-6H-azepino[5,4,3-cd]indol-6-one ((1S,4R)-7,7-dimethyl-2-oxobicyclo[2.2.1]hept-1-yl)methanesulfonic acid salt]
[13]; 600 mg orally twice daily, 106 patients
  Response assessment by independent radiology review: 42%
[13]; independent radiology review
  median DOR: 6.7 months
[13]; platinum-refractory patients
  Investigator-assessed ORR: 0%
[13]; platinum-resistant patients
  Investigator-assessed ORR: 25%
[13]; platinum-sensitive patients
  Investigator-assessed ORR: 66%

## C[C@]1(c2nc3c(C(N)=O)cccc3[nH]2)CCCN1 [veliparib, 2-[(R)-2-methylpyrrolidin-2-yl]-1H-benzimidazole-4-carboxamide]
Ovarian cancer [14]
  effect on the progression of ovarian cancer: unable to show any effect
